Patent US9944613B2, “Fumagillol spirocyclic compounds and fused bicyclic compounds and methods of making and using same” (Zafgen, Inc., priority 2015, dated 2018)

test system: Diet Induced Obese (DIO) C57BL/6 mice; assay: 10 day DIO mouse model, weight loss vs. vehicle; type: in vivo; conditions: 240 h, 0.3 mpk sc once a day for 10 days
Description: The objective of this study design was to investigate the efficacy of disclosed compounds in a 10 day DIO mouse model. Effects on body weight, food intake, hematology and blood chemistry were the primary readouts of this study design. Male, Diet Induced Obese (DIO) C57BL/6 mice, 19-21 weeks of age (13-15 weeks on high fat diet) were ordered from a certified vendor and upon receipt were housed on irradiated corncob bedding in micro-isolator cages on a 12-hour light-dark cycle (0700-1900) at 68-74° F. and 30-70% humidity. Mice were fed Research Diets D12492 (60% Kcal fat, 20% Kcal carbohydrate and 20% protein) and provided water ad libitum. DIO mice were received and housed in the facility for approximately two weeks prior to the start of test article administration. On Day −4 or −3, mice were randomized into study groups based on body weight and body weights were continued to be recorded daily for the duration of the study. Daily food intake was assessed starting on Study Day −2 by weighing of the food with hopper together to avoid loss of food in transfer.
Compounds were formulated into a 100% DMSO stock (at 9 mg/mL) prior to the start, and further diluted into the target working concentration using the vehicle of 10% DMSO in water. Prior to test article administration, starting on Day −3 a dosing acclimation occured with all animals receiving a subcutaneous injection of vehicle (10% DMSO) only for 3 days. Starting on Day 1, test compounds or vehicle were administered based on individual body weight, subcutaneously, once a day for 10 days. All mice were sacrificed on Day 11, 24 hours following the final dosing on Day 10. After sacrifice, whole blood was collected and analyzed for hematology and blood chemistry parameters.
Compounds were tested for weight loss vs. vehicle at 0.3 and 1.0 mpk sc (mg per kg animal weight delivered subcutaneously), and the results are shown in Table 2 below.

In order of falling inhibition in vivo at 0.3 mg/kg:
1. CO[C@@H]1[C@H](OC(=O)N2CCC3(CCN(CC(F)F)CC3)C2)CC[C@]2(CO2)[C@H]1[C@@]1(C)O[C@@H]1CC=C(C)C [Example 16, (3R,4S,5S,6R)-5-methoxy-4-((2R,3R)-2-methyl-3-(3-methylbut-2-enyl)oxiran-2-yl)-1-oxaspiro[2.5]octan-6-yl 8-(2,2-difluoroethyl)-2,8-diazaspiro[4.5]decane-2-carboxylate]  23.4%
2. CO[C@@H]1[C@H](OC(=O)N2CCC3(CN(CC(F)F)C3)C2)CC[C@]2(CO2)[C@H]1[C@@]1(C)O[C@@H]1CC=C(C)C [Example 15, (3R,4S,5S,6R)-5-methoxy-4-((2R,3R)-2-methyl-3-(3-methylbut-2-enyl)oxiran-2-yl)-1-oxaspiro[2.5]octan-6-yl 2-(2,2-difluoroethyl)-2,6-diazaspiro[3.4]octane-6-carboxylate]  22.5%
3. CO[C@@H]1[C@H](OC(=O)N2CC3CC3C2)CC[C@]2(CO2)[C@H]1[C@@]1(C)O[C@@H]1CC=C(C)C (stereo partly drawn) [Example 21, (3R,4S,5S,6R)-5-methoxy-4-((2R,3R)-2-methyl-3-(3-methylbut-2-enyl)oxiran-2-yl)-1-oxaspiro[2.5]octan-6-yl 3-azabicyclo[3.1.0]hexane-3-carboxylate]  21.2%
4. COC(=O)N1C[C@@H]2CN(C(=O)O[C@@H]3CC[C@]4(CO4)[C@@H]([C@@]4(C)O[C@@H]4CC=C(C)C)[C@@H]3OC)C[C@@H]2C1 [Example 42, (3aR,6aS)-2-((3R,4S,5S,6R)-5-methoxy-4-((2R,3R)-2-methyl-3-(3-methylbut-2-enyl)oxiran-2-yl)-1-oxaspiro[2.5]octan-6-yl) 5-methyl tetrahydropyrrolo[3,4-c]pyrrole-2,5(1H,3H)-dicarboxylate]  12.4%
5. CO[C@@H]1[C@H](OC(=O)N2C[C@@H]3[C@@H](CN4CCOCC4)[C@@H]3C2)CC[C@]2(CO2)[C@H]1[C@@]1(C)O[C@@H]1CC=C(C)C [Example 40, (1R,5S,6S)-((3R,4S,5S,6R)-5-methoxy-4-((2R,3R)-2-methyl-3-(3-methylbut-2-enyl)oxiran-2-yl)-1-oxaspiro[2.5]octan-6-yl) 6-(morpholinomethyl)-3-azabicyclo[3.1.0]hexane-3-carboxylate]  11.1%
6. CO[C@@H]1[C@H](OC(=O)N2C[C@@H]3[C@H](C2)[C@H]3C(=O)NCCN2CCOCC2)CC[C@]2(CO2)[C@H]1[C@@]1(C)O[C@@H]1CC=C(C)C [Example 37, (1R,5S,6R)-(3R,4S,5S,6R)-5-methoxy-4-((2R,3R)-2-methyl-3-(3-methylbut-2-en-1-yl)oxiran-2-yl)-1-oxaspiro[2.5]octan-6-yl 6-((2-morpholinoethyl)carbamoyl)-3-azabicyclo[3.1.0]hexane-3-carboxylate]  4.3%
7. CO[C@@H]1[C@H](OC(=O)N2CCC3(CCN(C)C(=O)C3)CC2)CC[C@]2(CO2)[C@H]1[C@@]1(C)O[C@@H]1CC=C(C)C [Example 31, (3R,4S,5S,6R)-5-methoxy-4-((2R,3R)-2-methyl-3-(3-methylbut-2-enyl)oxiran-2-yl)-1-oxaspiro[2.5]octan-6-yl 9-methyl-8-oxo-3,9-diazaspiro[5.5]undecane-3-carboxylate]  3.6%
8. CO[C@@H]1[C@H](OC(=O)N2CCC3(CCNC(=O)C3)CC2)CC[C@]2(CO2)[C@H]1[C@@]1(C)O[C@@H]1CC=C(C)C [Example 30, (3R,4S,5S,6R)-5-methoxy-4-((2R,3R)-2-methyl-3-(3-methylbut-2-enyl)oxiran-2-yl)-1-oxaspiro[2.5]octan-6-yl 8-oxo-3,9-diazaspiro[5.5]undecane-3-carboxylate]  1.1%
9. CO[C@@H]1[C@H](OC(=O)N2CCC3(CC2)CNC(=O)C3)CC[C@]2(CO2)[C@H]1[C@@]1(C)O[C@@H]1CC=C(C)C [Example 29, (3R,4S,5S,6R)-5-methoxy-4-((2R,3R)-2-methyl-3-(3-methylbut-2-enyl)oxiran-2-yl)-1-oxaspiro[2.5]octan-6-yl 3-oxo-2,8-diazaspiro[4.5]decane-8-carboxylate]  -0.5%
